# Assays:
# [1] = target: T1, human orexin-1 receptor (Homo sapiens, UniProt O43613); test: Intracellular calcium measurement (FLIPR), orexin-1 receptor antagonism; assay type: cell-based; conditions: CHO cells expressing human orexin-1 receptor, 3 nM orexin-A agonist; for inhibition at 1 µM: 1 uM compound, read-out: % Inhibition of OX1R @ 1 uM compound; for IC50: read-out: IC50 OX1R; for Kb: read-out: Kb OX1R
# T1 construct: expressed in transfected cells; host or cells: CHO cells (G418 selection)
# T1 sequence (O43613 1-425): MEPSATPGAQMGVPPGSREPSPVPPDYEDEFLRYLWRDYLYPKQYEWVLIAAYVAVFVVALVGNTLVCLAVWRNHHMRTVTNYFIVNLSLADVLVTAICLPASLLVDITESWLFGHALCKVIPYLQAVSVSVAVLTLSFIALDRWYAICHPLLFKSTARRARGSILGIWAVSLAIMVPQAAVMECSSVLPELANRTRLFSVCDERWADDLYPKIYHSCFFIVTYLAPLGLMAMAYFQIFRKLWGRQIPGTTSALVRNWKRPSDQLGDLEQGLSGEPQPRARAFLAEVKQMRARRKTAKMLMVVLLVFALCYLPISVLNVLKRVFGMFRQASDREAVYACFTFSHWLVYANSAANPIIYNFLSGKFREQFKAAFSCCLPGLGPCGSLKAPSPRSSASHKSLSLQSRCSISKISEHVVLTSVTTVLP
# Procedure: (§1) Antagonistic activities on both orexin receptors have been measured for each example compound using the following procedure:
# (§2) In Vitro Assay: Intracellular Calcium Measurements:
# (§3) Chinese hamster ovary (CHO) cells expressing the human orexin-1 receptor and the human orexin-2 receptor, respectively, are grown in culture medium (Ham F-12 with L-Glutamine) containing 300 μg/mL G418, 100 U/mL penicillin, 100 μg/mL streptomycin and 10% heat inactivated fetal calf serum (FCS). The cells are seeded at 20′000 cells/well into 384-well black clear bottom sterile plates (Greiner). The seeded plates are incubated overnight at 37° C. in 5% CO2. Human orexin-A as an agonist is prepared as 1 mM stock solution in MeOH:water (1:1), diluted in HBSS containing 0.1% bovine serum albumin (BSA), NaHCO 3: 0.375 g/L and 20 mM HEPES for use in the assay at a final concentration of 3 nM.
# (§4) Antagonists are prepared as 10 mM stock solution in DMSO, then diluted in 384-well plates using DMSO followed by a transfer of the dilutions into in HBSS containing 0.1% bovine serum albumin (BSA), NaHCO 3: 0.375 g/L and 20 mM HEPES. On the day of the assay, 50 μL of staining buffer (HBSS containing 1% FCS, 20 mM HEPES, NaHCO 3: 0.375 g/L, 5 mM probenecid (Sigma) and 3 μM of the fluorescent calcium indicator fluo-4 AM (1 mM stock solution in DMSO, containing 10% pluronic) is added to each well. The 384-well cell-plates are incubated for 50 min at 37° C. in 5% CO2 followed by equilibration at RT for 30 min before measurement.
# (§5) Within the Fluorescent Imaging Plate Reader (FLIPR Tetra, Molecular Devices), antagonists are added to the plate in a volume of 10 μL/well, incubated for 120 min and finally 10 μL/well of agonist is added. Fluorescence is measured for each well at 1 second intervals, and the height of each fluorescence peak is compared to the height of the fluorescence peak induced by 3 nM orexin-A with vehicle in place of antagonist. The IC50 value (the concentration of compound needed to inhibit 50% of the agonistic response) is determined and may be normalized using the obtained IC50 value of an on-plate reference compound. Optimized conditions were achieved by adjustment of pipetting speed and cell splitting regime. The calculated IC50 values may fluctuate depending on the daily cellular assay performance. Fluctuations of this kind are known to those skilled in the art. In the case where IC50 values have been determined several times for the same compound, the geometric mean has been given.
# [2] = target: T2, human orexin-2 receptor (Homo sapiens, UniProt O43614); test: Intracellular calcium measurement (FLIPR), orexin-2 receptor antagonism; assay type: cell-based; conditions: CHO cells expressing human orexin-2 receptor, 3 nM orexin-A agonist; for inhibition at 1 µM: 1 uM compound, read-out: % Inhibition of OX2R @ 1 uM compound
# T2 construct: expressed in transfected cells; host or cells: CHO cells (G418 selection)
# T2 sequence (O43614 1-444): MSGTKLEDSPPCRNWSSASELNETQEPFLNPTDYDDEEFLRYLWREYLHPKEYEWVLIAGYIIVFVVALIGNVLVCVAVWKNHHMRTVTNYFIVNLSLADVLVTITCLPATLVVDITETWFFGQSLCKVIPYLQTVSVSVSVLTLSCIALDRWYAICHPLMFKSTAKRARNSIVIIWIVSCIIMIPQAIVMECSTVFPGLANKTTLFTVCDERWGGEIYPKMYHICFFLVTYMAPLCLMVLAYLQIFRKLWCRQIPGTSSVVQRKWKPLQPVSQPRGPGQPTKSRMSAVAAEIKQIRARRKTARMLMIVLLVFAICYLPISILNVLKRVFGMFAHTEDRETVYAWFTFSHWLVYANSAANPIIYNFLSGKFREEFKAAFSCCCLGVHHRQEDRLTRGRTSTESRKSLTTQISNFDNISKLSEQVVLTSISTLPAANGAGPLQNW
# Procedure: as §1, §2, §3, §4, §5
SMILES,inhibition at 1 µM [1] [%],inhibition at 1 µM [2] [%],IC50 [1] [nM],Kb [1] [nM],IC50 ([2]; read-out: IC50 OX2R) [nM],Kb ([2]; read-out: Kb OX2R) [nM]
CCc1cnc(NC[C@@H]2CCCN2C(=O)c2c(-c3ccccc3)nc3sccn23)nc1 [Example 6],-5.39,16.2,–,–,–,–
O=C(c1c(-c2ccccc2)nc2occn12)N1CCC[C@H]1Cn1ccc(-c2ccccc2)n1 [Example 1],70.4,26.6,–,–,–,–
O=C(c1c(-c2ccccc2)nc2sccn12)N1CCC[C@H]1Cn1ccc(-c2ccccc2)n1 [Example 2],83,39.9,–,–,–,–
C[C@@H]1CCCN(C(=O)c2c(-c3ccccc3)nc3occn23)[C@@H]1CNc1ccc(C(F)(F)F)cn1 [Example 8],81.6,1.8,11,2,–,–
O=C(c1c(-c2ccccc2F)nc2sccn12)N1CCC[C@H]1Cn1ccc(-c2ccccc2)n1 [Example 14],87.4,57,12,3,1750,241
Cc1nn2c(C(=O)N3CCC[C@@H](C)[C@H]3CNc3ccc(C(F)(F)F)cn3)c(-c3ccc(F)cc3)nc2s1 [Example 12],79.8,11.8,13,3,–,–
O=C(c1c(-c2ccccc2)nc2occn12)N1CCC[C@H]1CNc1ccc(C(F)(F)F)cn1 [Example 3],45.8,14.4,–,–,–,–
C[C@@H]1CCCN(C(=O)c2c(-c3ccccc3)nc3sccn23)[C@@H]1CNc1ccc(C(F)(F)F)cn1 [Example 9],81.4,10.7,18,4,–,–
O=C(c1c(-c2ccccc2)nc2sccn12)N1CCC[C@H]1CNc1ccc(C(F)(F)F)cn1 [Example 4],61.1,25.4,–,–,–,–
CCc1cnc(OC[C@@H]2CCCN2C(=O)c2c(-c3ccccc3)nc3occn23)nc1 [Example 17],4.5,8.06,–,–,–,–
O=C(c1c(-c2ccccc2F)nc2sccn12)N1CCC[C@H]1CNc1ccc(C(F)(F)F)cn1 [Example 13],62.8,29,–,–,–,–
O=C(c1c(-c2ccc(F)cc2)nc2scnn12)N1CCC[C@H]1Cn1ccc(-c2ccccc2)n1 [Example 16],90.3,34.4,7,1.5,–,–
CCc1cnc(NC[C@@H]2CCCN2C(=O)c2c(-c3ccc(F)cc3)nc3sc(C)nn23)nc1 [Example 11],16.1,12,–,–,–,–
CCc1cnc(NC[C@@H]2CCCN2C(=O)c2c(-c3ccccc3F)nc3sccn23)nc1 [Example 15],25.1,15.2,–,–,–,–
CCc1cnc(NC[C@@H]2[C@H](C)CCCN2C(=O)c2c(-c3ccccc3)nc3occn23)nc1 [Example 7],48.1,6.75,–,–,–,–
O=C(c1c(-c2ccccc2)nc2occn12)N1CCC[C@H]1COc1ccc(C(F)(F)F)cn1 [Example 18],37.1,14.9,–,–,–,–
CCc1cnc(NC[C@@H]2CCCN2C(=O)c2c(-c3ccccc3)nc3occn23)nc1 [Example 5],0.5,3.3,–,–,–,–
CCc1cnc(NC[C@@H]2[C@H](C)CCCN2C(=O)c2c(-c3ccccc3)nc3sccn23)nc1 [Example 10],63.5,9.37,270,57,–,–

# Source: patent US12187738B2, “Imidazolo derivatives, compositions and methods as orexin antagonists” (HAGER BIOSCIENCES, LLC, priority 2019, dated 2025)
